Measurements from the NIST ThermoML archive (doi:10.1021/je800110r).
± gives the expanded uncertainty stated by the source.

Settings: 283.15 K, Liquid, Vibrating tube method

CCCCCCCCCC [decane]
Settings | mass density [kg/m3]
11428 kPa | 745.5 ± 2
11443 kPa | 745.5 ± 2
11462 kPa | 745.5 ± 2
11483 kPa | 745.5 ± 2
11498 kPa | 745.5 ± 2
11518 kPa | 745.4 ± 2
11530 kPa | 745.6 ± 2
11543 kPa | 745.5 ± 2
11625 kPa | 745.7 ± 2
11647 kPa | 745.7 ± 2
11663 kPa | 745.7 ± 2
11681 kPa | 745.6 ± 2
11774 kPa | 745.8 ± 2
11790 kPa | 745.8 ± 2
11806 kPa | 745.8 ± 2
11824 kPa | 745.8 ± 2
11838 kPa | 745.7 ± 2
11856 kPa | 745.8 ± 2
11876 kPa | 745.9 ± 2
11889 kPa | 745.8 ± 2
11904 kPa | 745.8 ± 2
11924 kPa | 745.9 ± 2
11943 kPa | 745.8 ± 2
11954 kPa | 745.8 ± 2
11969 kPa | 745.9 ± 2
11982 kPa | 746 ± 2
11997 kPa | 745.9 ± 2
12010 kPa | 746 ± 2
12024 kPa | 745.9 ± 2
12038 kPa | 746 ± 2
12052 kPa | 745.9 ± 2
12068 kPa | 745.9 ± 2
12080 kPa | 746 ± 2
12094 kPa | 745.9 ± 2
12108 kPa | 746 ± 2
12130 kPa | 746 ± 2
12149 kPa | 746 ± 2
12165 kPa | 745.9 ± 2
12180 kPa | 746.1 ± 2
12197 kPa | 746 ± 2
12211 kPa | 746 ± 2
12226 kPa | 746 ± 2
12241 kPa | 745.9 ± 2
12262 kPa | 746.1 ± 2
12280 kPa | 746.1 ± 2
12300 kPa | 746 ± 2
12319 kPa | 746.1 ± 2
12339 kPa | 746.1 ± 2
12356 kPa | 746.1 ± 2
12371 kPa | 746.1 ± 2
12386 kPa | 746.2 ± 2
12401 kPa | 746.1 ± 2
12415 kPa | 746.2 ± 2
12431 kPa | 746.2 ± 2
12451 kPa | 746.3 ± 2
12469 kPa | 746.2 ± 2
12484 kPa | 746.2 ± 2
12505 kPa | 746.2 ± 2
12519 kPa | 746.2 ± 2
12535 kPa | 746.3 ± 2
12550 kPa | 746.3 ± 2
12571 kPa | 746.3 ± 2
12588 kPa | 746.3 ± 2
12602 kPa | 746.3 ± 2
12618 kPa | 746.3 ± 2
12633 kPa | 746.3 ± 2
12649 kPa | 746.3 ± 2
12665 kPa | 746.3 ± 2
12678 kPa | 746.3 ± 2
12693 kPa | 746.4 ± 2
12709 kPa | 746.4 ± 2
12725 kPa | 746.3 ± 2
12741 kPa | 746.3 ± 2
12756 kPa | 746.4 ± 2
12772 kPa | 746.5 ± 2
12794 kPa | 746.4 ± 2
12812 kPa | 746.3 ± 2
12837 kPa | 746.4 ± 2
12855 kPa | 746.5 ± 2
12877 kPa | 746.5 ± 2
12895 kPa | 746.6 ± 2
12914 kPa | 746.5 ± 2
12933 kPa | 746.5 ± 2
12955 kPa | 746.4 ± 2
12972 kPa | 746.5 ± 2
12994 kPa | 746.6 ± 2
13013 kPa | 746.5 ± 2
13033 kPa | 746.5 ± 2
13052 kPa | 746.5 ± 2
13075 kPa | 746.5 ± 2
13095 kPa | 746.6 ± 2
13117 kPa | 746.6 ± 2
13316 kPa | 746.8 ± 2
13337 kPa | 746.7 ± 2
13598 kPa | 746.9 ± 2
13632 kPa | 746.9 ± 2
13652 kPa | 747 ± 2
13673 kPa | 747 ± 2
13697 kPa | 746.9 ± 2
13715 kPa | 747 ± 2
13740 kPa | 747 ± 2
13765 kPa | 747.1 ± 2
13787 kPa | 747.1 ± 2
13809 kPa | 747 ± 2
13831 kPa | 747.1 ± 2
13856 kPa | 747 ± 2
13875 kPa | 747.2 ± 2
13901 kPa | 747.1 ± 2
13923 kPa | 747.1 ± 2
13949 kPa | 747.1 ± 2
13968 kPa | 747.2 ± 2
13994 kPa | 747.2 ± 2
14017 kPa | 747.2 ± 2
14039 kPa | 747.2 ± 2
14062 kPa | 747.3 ± 2
14088 kPa | 747.2 ± 2
14138 kPa | 747.2 ± 2
14164 kPa | 747.3 ± 2
14191 kPa | 747.4 ± 2
14216 kPa | 747.4 ± 2
14359 kPa | 747.4 ± 2
14385 kPa | 747.5 ± 2
14411 kPa | 747.4 ± 2
14428 kPa | 747.6 ± 2
14446 kPa | 747.5 ± 2
14481 kPa | 747.5 ± 2
14499 kPa | 747.5 ± 2
14528 kPa | 747.6 ± 2
14543 kPa | 747.6 ± 2
14563 kPa | 747.5 ± 2
14578 kPa | 747.6 ± 2
14599 kPa | 747.6 ± 2
14614 kPa | 747.6 ± 2
14632 kPa | 747.6 ± 2
14650 kPa | 747.6 ± 2
14668 kPa | 747.7 ± 2
14686 kPa | 747.7 ± 2
14704 kPa | 747.6 ± 2
14722 kPa | 747.7 ± 2
14741 kPa | 747.7 ± 2
14759 kPa | 747.7 ± 2
14777 kPa | 747.6 ± 2
14795 kPa | 747.6 ± 2
14826 kPa | 747.7 ± 2
14844 kPa | 747.7 ± 2
14862 kPa | 747.7 ± 2
14881 kPa | 747.8 ± 2
14903 kPa | 747.7 ± 2
14925 kPa | 747.8 ± 2
14941 kPa | 747.8 ± 2
14963 kPa | 747.8 ± 2
14979 kPa | 747.8 ± 2
14998 kPa | 747.9 ± 2
15017 kPa | 748 ± 2
15036 kPa | 747.9 ± 2
15055 kPa | 747.9 ± 2
15077 kPa | 747.9 ± 2
15100 kPa | 747.8 ± 2
15119 kPa | 747.9 ± 2
15139 kPa | 747.9 ± 2
15239 kPa | 748 ± 2
15312 kPa | 748 ± 2
15351 kPa | 748.1 ± 2
15368 kPa | 748.1 ± 2
15391 kPa | 748.2 ± 2
15415 kPa | 748 ± 2
15442 kPa | 748.1 ± 2
15466 kPa | 748.3 ± 2
15486 kPa | 748.1 ± 2
15507 kPa | 748.2 ± 2
15524 kPa | 748.3 ± 2
15545 kPa | 748.3 ± 2
15569 kPa | 748.3 ± 2
15590 kPa | 748.2 ± 2
15617 kPa | 748.3 ± 2
15645 kPa | 748.4 ± 2
15669 kPa | 748.2 ± 2
15693 kPa | 748.3 ± 2
15718 kPa | 748.3 ± 2
15743 kPa | 748.2 ± 2
15771 kPa | 748.4 ± 2
15799 kPa | 748.3 ± 2
15821 kPa | 748.3 ± 2
15850 kPa | 748.3 ± 2
15874 kPa | 748.4 ± 2
15899 kPa | 748.4 ± 2
15920 kPa | 748.6 ± 2
15949 kPa | 748.5 ± 2
15981 kPa | 748.6 ± 2
16007 kPa | 748.4 ± 2
16028 kPa | 748.6 ± 2
16083 kPa | 748.6 ± 2
16109 kPa | 748.6 ± 2
16135 kPa | 748.5 ± 2
16168 kPa | 748.6 ± 2
16191 kPa | 748.6 ± 2
16221 kPa | 748.6 ± 2
16257 kPa | 748.7 ± 2
16288 kPa | 748.7 ± 2
16310 kPa | 748.7 ± 2
16344 kPa | 748.8 ± 2
16378 kPa | 748.7 ± 2
16405 kPa | 748.8 ± 2
16433 kPa | 748.8 ± 2
16467 kPa | 748.7 ± 2
16494 kPa | 748.9 ± 2
16528 kPa | 748.8 ± 2
16560 kPa | 748.9 ± 2
16587 kPa | 749 ± 2
16619 kPa | 748.8 ± 2
16643 kPa | 749 ± 2
16667 kPa | 749 ± 2
16703 kPa | 748.8 ± 2
16739 kPa | 749 ± 2
16759 kPa | 748.8 ± 2
16796 kPa | 749 ± 2
16824 kPa | 749 ± 2
16852 kPa | 749.1 ± 2
16880 kPa | 749 ± 2
16905 kPa | 748.9 ± 2
16938 kPa | 749.2 ± 2
16967 kPa | 749.2 ± 2
16993 kPa | 749.1 ± 2
17030 kPa | 749.2 ± 2
17063 kPa | 749.1 ± 2
17088 kPa | 749.1 ± 2
17127 kPa | 749.2 ± 2
17153 kPa | 749.2 ± 2
17192 kPa | 749.2 ± 2
17213 kPa | 749.3 ± 2
17240 kPa | 749.3 ± 2
17267 kPa | 749.4 ± 2
17293 kPa | 749.4 ± 2
17316 kPa | 749.4 ± 2
17343 kPa | 749.4 ± 2
17366 kPa | 749.5 ± 2
17390 kPa | 749.4 ± 2
17422 kPa | 749.4 ± 2
17451 kPa | 749.3 ± 2
17470 kPa | 749.5 ± 2
17498 kPa | 749.4 ± 2
17521 kPa | 749.4 ± 2
17549 kPa | 749.4 ± 2
17626 kPa | 749.5 ± 2
17652 kPa | 749.5 ± 2
17711 kPa | 749.6 ± 2
17734 kPa | 749.6 ± 2
17770 kPa | 749.5 ± 2
17792 kPa | 749.7 ± 2
17815 kPa | 749.7 ± 2
17841 kPa | 749.8 ± 2
17864 kPa | 749.7 ± 2
17898 kPa | 749.9 ± 2
17925 kPa | 749.6 ± 2
17948 kPa | 749.7 ± 2
17982 kPa | 749.9 ± 2
18017 kPa | 749.8 ± 2
18044 kPa | 749.8 ± 2
18071 kPa | 749.9 ± 2
18099 kPa | 749.9 ± 2
18130 kPa | 749.9 ± 2
18154 kPa | 749.9 ± 2
18178 kPa | 749.9 ± 2
18210 kPa | 750 ± 2
18246 kPa | 750 ± 2
18305 kPa | 750 ± 2
18383 kPa | 750 ± 2
18574 kPa | 750.2 ± 2
18652 kPa | 750.2 ± 2
18691 kPa | 750.2 ± 2
18719 kPa | 750.1 ± 2
18746 kPa | 750.2 ± 2
18770 kPa | 750.3 ± 2
18793 kPa | 750.3 ± 2
